From PubChem BioAssay (NCI) come the findings set out here.

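96-well plates; 48 h exposure; 5 concentrations. Endpoints by linear interpolation between flanking doses. Not reached: highest tested concentration assigned. GI50 marks 50% less growth. TGI is the concentration that stops growth completely.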

Among the test systems are HL-60(TB) leukemia; HT29 colon; NCI-H460 lung; OVCAR-5 ovarian; SK-MEL-2 melanoma; SN12C renal; U251 CNS; UACC-257 melanoma.
What all share (assay): DTP human tumour cell line panel, 48 h

For the compound `Cc1ccc(SCC(O)=C2C(=O)CCCC2=O)cc1`, the TGI with HL-60(TB) leukemia, in the assay on HT29 colon, with NCI-H460 lung, in the assay with OVCAR-5 ovarian, with SK-MEL-2 melanoma and with SN12C renal was over 100 µM in each case. Besides, the TGI with U251 CNS and with UACC-257 melanoma was over 100 µM each time.

For the compound `Cc1cc(Cl)ccc1NC(=O)CCCC(=O)C(C(=O)c1ccccc1)c1ccccc1` (stereo not given), the TGI with HL-60(TB) leukemia, in the assay with HT29 colon, in the assay on NCI-H460 lung, in the assay with OVCAR-5 ovarian, in the assay on SK-MEL-2 melanoma and in the assay with SN12C renal was over 100 µM in each case. Also, the TGI with U251 CNS and with UACC-257 melanoma was over 100 µM in each case.

With `O=C(O)Cc1cc(=O)[nH]c2c1C(=O)CCC2`, the TGI with HL-60(TB) leukemia, with HT29 colon, with NCI-H460 lung, in the assay with OVCAR-5 ovarian, with SK-MEL-2 melanoma and in the assay on SN12C renal was over 100 µM in each case. Besides, the TGI in the assay with U251 CNS and in the assay with UACC-257 melanoma was over 100 µM in each case.

For `CN(CCN(C)C(=O)CCn1ccc(=O)[nH]c1=O)C(=O)CCn1ccc(=O)[nH]c1=O`, the TGI in the assay with HL-60(TB) leukemia, in the assay with HT29 colon, in the assay with NCI-H460 lung, in the assay with OVCAR-5 ovarian, with SK-MEL-2 melanoma and in the assay with SN12C renal was over 100 µM throughout. Besides, the TGI in the assay with U251 CNS was over 100 µM.

Take `COc1cc(C(=O)C/C(CCC(=O)Nc2ccc(Cl)cc2Cl)=N/Nc2nnc(C)n2N)ccc1O`: the TGI with HL-60(TB) leukemia, in the assay with HT29 colon, in the assay on NCI-H460 lung, in the assay with OVCAR-5 ovarian, in the assay on SK-MEL-2 melanoma and in the assay on SN12C renal was over 100 µM in each case. For the same compound, the TGI with U251 CNS and in the assay on UACC-257 melanoma was over 100 µM each time.

On to `O=c1cccccc1NCCNc1cccccc1=O`, for which the TGI in the assay with HL-60(TB) leukemia was over 100 µM; in the assay with HT29 colon, over 100 µM; in the assay with NCI-H460 lung it was over 100 µM; in the assay with OVCAR-5 ovarian, over 100 µM; in the assay with SK-MEL-2 melanoma, over 100 µM; in the assay with SN12C renal it was 27.9 µM. The TGI in the assay with U251 CNS and in the assay on UACC-257 melanoma was over 100 µM throughout.

On to `Cc1ccc(C)c2c1CCc1cc3ccccc3nc1-2`, for which the TGI in the assay with HT29 colon, with NCI-H460 lung, in the assay on OVCAR-5 ovarian, with SK-MEL-2 melanoma, in the assay with SN12C renal and with U251 CNS was over 100 µM in each case. In addition, the TGI in the assay with UACC-257 melanoma is over 100 µM.

As to `CCCCN(CCCC)C(=O)C(=O)CC(=O)/C=C/c1ccccc1`, the TGI with HL-60(TB) leukemia, in the assay with HT29 colon, with NCI-H460 lung, in the assay with OVCAR-5 ovarian, with SK-MEL-2 melanoma and in the assay on SN12C renal was over 100 µM throughout. Besides, the TGI with U251 CNS and with UACC-257 melanoma was over 100 µM each time.

For the compound `N[C@H](C(=O)O)[C@@H](Cl)CC(=O)O`, the TGI in the assay on HL-60(TB) leukemia, in the assay on HT29 colon, with NCI-H460 lung, in the assay with OVCAR-5 ovarian, in the assay with SK-MEL-2 melanoma and in the assay on SN12C renal was over 100 µM throughout. In addition, the TGI in the assay on U251 CNS and with UACC-257 melanoma was over 100 µM throughout.

For `COc1cc(C2(C)SCCCS2)c(I)c(OC)c1OC`, the TGI with HL-60(TB) leukemia, in the assay on HT29 colon, with NCI-H460 lung, with OVCAR-5 ovarian, in the assay with SK-MEL-2 melanoma and with SN12C renal was over 100 µM throughout. In addition, the TGI in the assay with U251 CNS and with UACC-257 melanoma was over 100 µM throughout.

In the case of `CCCCCCCCCCCCCCC(O)C1CCC(C(O)CCC(O)CCCCCC(O)CC2=CC(C)OC2=O)O1` (stereo not given), the TGI in the assay with HL-60(TB) leukemia is 1.56 µM; with HT29 colon it was 8.68 µM; in the assay on OVCAR-5 ovarian, 20.3 µM; in the assay with SK-MEL-2 melanoma, 9.03 µM; with SN12C renal it was 9.24 µM; in the assay with U251 CNS it was 20.9 µM. In the assay with UACC-257 melanoma, this compound yielded a TGI of 2.94 µM.

On to `COC(=O)/C(=N/O)C(C(=O)OC)C(=O)C(=O)Nc1c(Cl)cc(C)cc1S(=O)(=O)O` (stereo not given), for which the TGI in the assay on HL-60(TB) leukemia, in the assay on HT29 colon, in the assay with NCI-H460 lung, in the assay with OVCAR-5 ovarian, with SK-MEL-2 melanoma and with SN12C renal was over 100 µM in each case. Further, the concentration for total growth inhibition (TGI) in the assay on U251 CNS and with UACC-257 melanoma was over 100 µM throughout.

In the case of `COc1cc2c3c(c1OC)Oc1ccc(cc1)CC1c4c(cc(OC)c(OC)c4Oc4ccc(cc4)CC3N(C)CC2)CCN1C` (stereo not given), the TGI is 34.1 µM in the assay with HL-60(TB) leukemia; 35.2 µM in the assay on HT29 colon; 37.1 µM in the assay on NCI-H460 lung; over 100 µM with OVCAR-5 ovarian; 50.6 µM with SK-MEL-2 melanoma; 49.7 µM with SN12C renal. Also, the results for the TGI with U251 CNS and with UACC-257 melanoma were 30.8 µM and 28.6 µM, respectively.

`O=C(Nc1ccccc1C(=O)O)C(=O)C(C(=O)c1ccccc1-c1ccccc1)C1OC(=O)c2ccccc21` (stereo not given): the TGI with HL-60(TB) leukemia was 70.6 µM; with HT29 colon it was 65.9 µM; in the assay with NCI-H460 lung, 32.7 µM; in the assay with OVCAR-5 ovarian it was 42.2 µM; in the assay with SK-MEL-2 melanoma, over 100 µM; in the assay with SN12C renal, 39.1 µM. Also, the TGI worked out at 28.9 µM in the assay on U251 CNS and 37.7 µM with UACC-257 melanoma.

`COC(=O)C12C3C4C1C1C2C3C41C(=O)N(C(C)C)C(C)C` (stereo not given): the TGI in the assay with HL-60(TB) leukemia, in the assay with HT29 colon, with NCI-H460 lung, in the assay on OVCAR-5 ovarian, in the assay on SN12C renal and in the assay on U251 CNS was over 100 µM each time. Besides, the TGI with UACC-257 melanoma is over 100 µM.

On to `O=C1OC2C=CC1C1(CCOC1=O)C2` (stereo not given), for which the TGI in the assay on HL-60(TB) leukemia, in the assay on NCI-H460 lung, in the assay on OVCAR-5 ovarian, in the assay on SK-MEL-2 melanoma, with SN12C renal and with U251 CNS was over 100 µM in each case. In the assay on UACC-257 melanoma, this compound showed a TGI of over 100 µM.

`c1ccc(-c2[nH]c(-c3ccccc3)c(-c3cnccn3)c2-c2cnccn2)cc1`: the TGI in the assay with HL-60(TB) leukemia, in the assay on HT29 colon, with NCI-H460 lung, with OVCAR-5 ovarian, in the assay on SK-MEL-2 melanoma and in the assay on SN12C renal was over 100 µM in each case. The TGI in the assay with U251 CNS and in the assay on UACC-257 melanoma was over 100 µM each time.

On to `COc1cccc2c1[C@]1(O)C(O)CCCC21` (stereo not given in full), for which the TGI in the assay with HT29 colon, in the assay with NCI-H460 lung, in the assay with OVCAR-5 ovarian, with SK-MEL-2 melanoma, in the assay with SN12C renal and with U251 CNS was over 100 µM throughout. The compound further gave a TGI in the assay with UACC-257 melanoma of over 100 µM.

In the case of `CCOC(=O)NC(=O)c1cn(C2OC(CO)C(O)C2O)c(=O)[nH]c1=O` (stereo not given), the TGI in the assay on HL-60(TB) leukemia, in the assay with HT29 colon, with NCI-H460 lung, in the assay with OVCAR-5 ovarian, in the assay with SK-MEL-2 melanoma and with SN12C renal was over 100 µM in each case. For the same compound, the TGI in the assay with U251 CNS and in the assay on UACC-257 melanoma was over 100 µM throughout.

Turning to `CCC1(CC)C(=O)[N-]C(=O)[N-]C1=O.[Au+].[Au+].c1ccc([PH+](c2ccccc2)c2ccccc2)cc1.c1ccc([PH+](c2ccccc2)c2ccccc2)cc1`, the GI50 in the assay with NCI-H460 lung was 1.99 µM; in the assay on OVCAR-5 ovarian it was 1.68 µM; with SN12C renal it was 2.08 µM; in the assay with U251 CNS, 1.16 µM; in the assay on UACC-257 melanoma, 1.26 µM. Further, the TGI amounted to 4.69 µM in the assay with NCI-H460 lung; 3.06 µM with OVCAR-5 ovarian; 4.75 µM with SN12C renal; 2.65 µM in the assay on U251 CNS; 2.53 µM in the assay on UACC-257 melanoma.

As for `CCOC(=O)/C(C#N)=C(N)/C(=N\Nc1cccc(C(F)(F)F)c1)C(=O)OCC`, the total growth inhibition concentration (TGI) in the assay with HL-60(TB) leukemia, in the assay on HT29 colon, in the assay with OVCAR-5 ovarian, in the assay on SK-MEL-2 melanoma, with SN12C renal and in the assay on U251 CNS was over 100 µM throughout. The total growth inhibition concentration (TGI) in the assay on UACC-257 melanoma is over 100 µM.

As for `Cc1cccc(O)c(=O)c1`, the TGI in the assay on HL-60(TB) leukemia is 12.1 µM; in the assay on HT29 colon it was over 100 µM; in the assay on NCI-H460 lung, over 100 µM; in the assay on OVCAR-5 ovarian it was over 100 µM; in the assay on SN12C renal it was over 100 µM; in the assay with U251 CNS, over 100 µM. In the assay with UACC-257 melanoma, this compound registered a TGI of over 100 µM.

On to `[N-]=[N+]=Nc1c(Br)c(=O)[nH]c(=O)n1COCCO`, for which the TGI in the assay with HL-60(TB) leukemia, in the assay on HT29 colon, in the assay with NCI-H460 lung, with OVCAR-5 ovarian, in the assay with SN12C renal and in the assay on U251 CNS was over 100 µM throughout. The compound further came in with a TGI in the assay with UACC-257 melanoma of over 100 µM.

For the compound `O=C1OC(c2ccccc2)=N/C1=C/N1CCCC1C(=O)O` (stereo not given), the TGI in the assay on HL-60(TB) leukemia, in the assay on HT29 colon, with NCI-H460 lung, in the assay on OVCAR-5 ovarian, in the assay with SK-MEL-2 melanoma and in the assay with U251 CNS was over 100 µM throughout. Moreover, the TGI in the assay with UACC-257 melanoma is over 100 µM.

Regarding `c1ccc(COc2cccc3cccnc23)cc1`, the TGI was 57.5 µM in the assay with HL-60(TB) leukemia; over 100 µM with HT29 colon; over 100 µM with NCI-H460 lung; over 100 µM in the assay with OVCAR-5 ovarian; over 100 µM in the assay on SN12C renal; over 100 µM in the assay on UACC-257 melanoma.

One may read the TGI as the concentration giving total growth inhibition. A low value points to greater sensitivity of the cells. In general, GI50 refers to the concentration at which growth is held to half of that of the control.
